The numbers were not newly measured in US20080279967A1, “Composition and method for increasing the metabolism of free fatty acids and facilitating a favorable blood lipid” (priority 2007, published 2008), which cites them from elsewhere.

In the data set the test system is rats. To be noted: administration to rats.

With `C[N+](C)(C)CCCC(=O)[O-]` [γ-butyrobetaine, 4-trimethylamniobutyrate], the “nitric oxide concentrations in blood” value was “increases” and the vasodilating activities entry is listed as “elevated”.
